Assay results as given in patent US20190255073A1, “ESTERS OF 3-POLYAMINE DERIVATIVES OF BILE ACIDS FOR THE TREATMENT OF INFECTIONS” (VIRBAC, priority 2016, published 2019).
In brackets after ≈: the same amount, converted by molar mass.

Assays:
[1] = test system: S. aureus ATCC25923; assay: MIC determination by microplate dilution, S. aureus human strain; assay type: cell-based, Staphylococcus aureus; settings: Staphylococcus aureus, ATCC25923, Gram-positive, Mueller-Hinton medium, 24 h, 37° C.
How it was run: (§1)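 Strains precultured in Mueller-Hinton broth 24 h at 37 °C; compounds from 5 mg/mL stocks in DMSO/methanol 50/50, twofold serial dilution in 96-well plates, inoculum set to OD 0.01. Incubated 24 h at 37 °C, humid; OD read at 620 nm to derive MIC, duplicates.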

[2] = test system: S. aureus (340); assay: MIC determination by microplate dilution, S. aureus animal strain; assay type: cell-based, Staphylococcus aureus; settings: Staphylococcus aureus, Gram-positive, Mueller-Hinton medium, 24 h, 37° C.
How it was run: as §1

[3] = test system: S. intermedius (1051997); assay: MIC determination by microplate dilution, S. intermedius animal strain; assay type: cell-based, Staphylococcus intermedius; settings: Staphylococcus intermedius, Gram-positive, Mueller-Hinton medium, 24 h, 37° C.
How it was run: as §1

[4] = test system: E. faecalis ATCC29212; assay: MIC determination by microplate dilution, E. faecalis human strain; assay type: cell-based, Enterococcus faecalis; settings: Enterococcus faecalis, ATCC29212, Gram-positive, Mueller-Hinton medium, 24 h, 37° C.
How it was run: as §1

[5] = test system: E. coli ATCC28922; assay: MIC determination by microplate dilution, E. coli human strain; assay type: cell-based, Escherichia coli; settings: Escherichia coli, ATCC28922, Gram-negative, Mueller-Hinton medium, 24 h, 37° C.
How it was run: as §1

[6] = test system: P. aeruginosa ATCC27853; assay: MIC determination by microplate dilution, P. aeruginosa human strain; assay type: cell-based, Pseudomonas aeruginosa; settings: Pseudomonas aeruginosa, ATCC27853, Gram-negative, Mueller-Hinton medium, 24 h, 37° C.
How it was run: as §1

[7] = test system: P. aeruginosa (1051575); assay: MIC determination by microplate dilution, P. aeruginosa animal strain; assay type: cell-based, Pseudomonas aeruginosa; settings: Pseudomonas aeruginosa, Gram-negative, Mueller-Hinton medium, 24 h, 37° C.
How it was run: as §1

[8] = test system: CHO-K1 cells; assay: WST1 cytotoxicity test on CHO-K1 cells; assay type: cell-based, Chinese hamster; settings: Cricetulus griseus, CHO-K1, read-out: IC50 (μg/mL) CHO
How it was run: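 Viability read-out: WST-1 tetrazolium cleavage by mitochondrial dehydrogenases, 20 min at 37 °C, A450. Compounds added at rising concentrations, in duplicate, to CHO-K1 cells for 24 h (37 °C, 5% CO2). IC50, the concentration halving viability, fitted by nonlinear regression.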

[9] = test system: P. aeruginosa (1051575); assay: Potentiation of the doxycycline activity at 2 μg/mL; assay type: cell-based, Pseudomonas aeruginosa; settings: in combination with doxycycline 2 μg/mL; 24 h, 37°
[10] = test system: P. aeruginosa (1051575); assay: Potentiation of ampicillin activity; assay type: cell-based, Pseudomonas aeruginosa; settings: concentration of compound required with ampicillin 4 μg/mL
Protocol: This method requires the use of a 96-well plate: 100 μL of a liquid culture medium are placed in each well and then seeded with the microbial suspension prepared previously. The required volume to be seeded is calculated for an OD of 0.01, which corresponds to about 5×10^6 bacteria in each well. In this plate, the first line corresponds to a negative control (200 μL of sterile culture medium in each well), the second line corresponds to a positive control (100 μL of sterile culture medium+100 μL of the bacterial suspension), and the third line contains 192 μL of culture medium; 8 μL of compound of formula (I) to be tested are placed in each well. […] 92 μL of bacterial suspension are then added to lines 3 to 8. […] After 24 hours of incubation at 37° C., 40 μL of nitro tetrazolium iodide are added to each well to reveal the presence of live bacteria by staining the medium pink.
The procedure is identical to that indicated in Example 5 above. […]
The results are given in table V. They indicate the concentration of compound of formula (I) required to be able to restore the activity of the antibiotic under consideration.

[11] = test system: C. albicans; assay: Antifungal activity, cascade microdilution, C. albicans; assay type: cell-based, Candida albicans; settings: Candida albicans, 24 h, read-out: IC50 (μg/mL) C. albicans

## CC(C)OC(=O)CC[C@@H](C)[C@H]1CCC2C3C(CC[C@@]21C)[C@@]1(C)CC[C@H](NCCCN(CCCN)CCCN)CC1C[C@H]3O (stereo partly drawn) [(39), isopropyl 3β-(tris(3-aminopropyl)amine)chenodeoxycholate]
[1]
  MIC: 7 µg/mL (≈ 11.6 µM)
[2]
  MIC: 7 µg/mL (≈ 11.6 µM)
[3]
  MIC: 3.5 µg/mL (≈ 5.79 µM)
[4]
  MIC: 14 µg/mL (≈ 23.1 µM)
[5]
  MIC: 14 µg/mL (≈ 23.1 µM)
[6]
  MIC: 28 µg/mL (≈ 46.3 µM)
[7]
  MIC: 28 µg/mL (≈ 46.3 µM)
[8]
  IC50: 110 µg/mL (≈ 182 µM)
[9]
  MIC - P. aeruginosa (1051575): content of compound of formula (I) to restore the doxycycline activity (at 2 μg/mL): 2 µg/mL
[10]
  MIC P. aeruginosa (1051575), compound + ampicillin: 30 µg/mL
[11]
  IC50: 4 µg/mL (≈ 6.61 µM)
